# Target: T1, mouse TMC6 protein (Mus musculus, UniProt Q7TN60, A788T)
# T1 construct: expressed in transfected cells; host or cells: CHO-K1
# T1 sequence (Q7TN60 1-810 A788T): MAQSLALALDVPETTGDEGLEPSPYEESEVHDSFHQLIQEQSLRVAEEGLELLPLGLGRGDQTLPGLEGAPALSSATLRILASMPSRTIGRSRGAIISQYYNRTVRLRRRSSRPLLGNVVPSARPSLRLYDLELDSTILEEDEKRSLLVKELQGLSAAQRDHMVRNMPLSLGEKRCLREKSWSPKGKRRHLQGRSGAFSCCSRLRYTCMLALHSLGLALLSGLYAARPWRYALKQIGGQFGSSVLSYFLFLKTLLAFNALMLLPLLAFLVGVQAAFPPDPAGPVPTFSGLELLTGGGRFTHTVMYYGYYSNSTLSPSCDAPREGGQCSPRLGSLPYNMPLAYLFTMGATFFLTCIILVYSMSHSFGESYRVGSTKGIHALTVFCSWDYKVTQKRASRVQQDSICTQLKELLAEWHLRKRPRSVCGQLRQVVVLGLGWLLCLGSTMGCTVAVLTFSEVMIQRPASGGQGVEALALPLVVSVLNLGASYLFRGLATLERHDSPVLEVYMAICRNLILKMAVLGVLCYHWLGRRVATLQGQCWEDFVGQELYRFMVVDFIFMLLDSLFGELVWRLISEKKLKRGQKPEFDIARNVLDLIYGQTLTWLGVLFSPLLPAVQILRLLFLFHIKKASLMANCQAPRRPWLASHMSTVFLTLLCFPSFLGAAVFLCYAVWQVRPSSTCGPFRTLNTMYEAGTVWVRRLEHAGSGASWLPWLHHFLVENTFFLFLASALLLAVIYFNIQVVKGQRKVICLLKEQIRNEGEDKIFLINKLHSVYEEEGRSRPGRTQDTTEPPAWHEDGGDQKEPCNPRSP
# Assay: Calcium imaging (YC2.60 FRET) of CHO-K1 cells expressing the mouse TMC6 gene
# Format: cell-based
# Description: CHO-K1 cells were transfected with TMC6-pcDNA3.1 or pcDNA3.1 in combination with YC2.60-pcDNA, to prepare TMC6-expressing cells (cells expressing the mouse TMC6 gene and the YC2.60 gene) and control cells (cells expressing the YC2.60 gene). The prepared cells were stimulated, and activation of the cells was measured. The procedure was as follows.
# That is, first, CHO-K1 cells (ATCC) were inoculated into a culture dish having a diameter of 60 mm while adjusting the number of the cells to obtain 60% confluence, and cultured for 8 hr. As the medium, 5 mL of Ham's F-12K (Kaighn's) (Life Technologies) containing 10% fetal bovine serum (Life Technologies) was used. A 15 μL aliquot of FuGENE 6 (Promega) was added to 235 μL of Opti-MEM (Thermo Fisher Scientific), and incubated for 5 min at a room temperature. Then, 0.625 μg of TMC6-pcDNA3.1 and 2.5 μg of YC2.60-pcDNA were further added thereto, and incubated for 15 min at a room temperature. Then, the whole of the resultant mixture was dropped into the culture broth of the CHO-K1 cells, and the culture broth was mildly stirred. Then, the cells were further cultured for 18 hr under a condition of 5% CO2 at 37° C., to obtain the TMC6-expressing cells. Similarly, the control cells were obtained through transfection using pcDNA3.1 instead of TMC6-pcDNA3.1.
# After the cultivation, the culture broth was removed. A low-concentration NaCl solution (27 mM NaCl, 1 mM KCl, 0.4 mM CaCl2, 0.2 mM MgCl2, 2 mM Hepes (pH7.3), 1 mM NaHCO3, 2 mM glucose, 2 mM sodium pyruvate, and 112 mM NMDG-Cl) was added to the culture dish, incubation was carried out statically for 5 min, and then, stimulation and observation of cells were started. First, the low-concentration NaCl solution was perfused for approximately 80 sec, to provide a ground state. Then, a high-concentration NaCl solution (135 mM NaCl, 1 mM KCl, 0.4 mM CaCl2, 0.2 mM MgCl2, 2 mM Hepes (pH7.3), 1 mM NaHCO3, 2 mM glucose, and 2 mM sodium pyruvate) was perfused instead of the low-concentration NaCl solution for approximately 60 sec, to stimulate the cells. […]
compound,measurement,setting,value
"[Cl-].[Na+] [NaCl, sodium chloride]",relative FRET value (YFP/CFP) of the ROI-1 cell,"one typical TMC6-expressing cell, stimulation with high-concentration NaCl solution (135 mM NaCl), FIG. 13C",approximately 1.2
same,"change of YFP/CFP value (intracellular calcium concentration, cell activation)",stimulation with high-concentration NaCl solution (135 mM NaCl) for approx. 60 sec after 27 mM NaCl ground state,increase

# From patent US10175228B2, “Method of using transmembrane channel-like protein 6 (TMC6) protein to identify substances affecting salty taste” (priority 2016, dated 2019)
